Results taken from ChEMBL document CHEMBL1145873, “Acylsulfonamide-containing PTP1B inhibitors designed to mimic an enzyme-bound water of hydration” (Bioorg Med Chem Lett, 2003).

What was measured:
[1] = biological target: T1, Tyrosine-protein phosphatase non-receptor type 1 (Homo sapiens, UniProt P18031); assay: Inhibitory concentration towards recombinant human Protein-tyrosine phosphatase 1B was determined
T1 sequence (P18031 whole entry): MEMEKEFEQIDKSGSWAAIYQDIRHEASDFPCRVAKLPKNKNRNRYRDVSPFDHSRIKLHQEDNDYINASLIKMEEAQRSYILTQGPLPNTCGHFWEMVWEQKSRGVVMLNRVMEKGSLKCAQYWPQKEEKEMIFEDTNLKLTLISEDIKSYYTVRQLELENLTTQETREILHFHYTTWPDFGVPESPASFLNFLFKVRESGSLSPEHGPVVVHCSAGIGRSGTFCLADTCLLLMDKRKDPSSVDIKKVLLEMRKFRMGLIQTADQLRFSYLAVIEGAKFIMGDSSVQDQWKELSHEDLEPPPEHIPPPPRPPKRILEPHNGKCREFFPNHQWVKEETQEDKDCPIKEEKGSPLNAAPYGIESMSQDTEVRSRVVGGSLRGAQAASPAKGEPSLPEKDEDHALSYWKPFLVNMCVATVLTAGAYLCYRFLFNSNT

[2] = biological target: T1, Tyrosine-protein phosphatase non-receptor type 1; assay: Binding affinity towards recombinant human Protein-tyrosine phosphatase 1B was determined

IC50 [1] [µM] | Ki [2] [µM] | Structure (SMILES)
19 | – | C[C@@H]1CCC[C@H](C)N1NC(=O)c1ccc(Cl)c(S(=O)(=O)NC(=O)c2ccc3cc(C(F)(F)P(=O)(O)O)ccc3c2)c1
24 | – | O=C(NS(=O)(=O)Cc1ccccc1)c1ccc2cc(C(F)(F)P(=O)(O)O)ccc2c1
25 | – | O=C(NS(=O)(=O)c1cc(C2(O)NC(=O)c3ccccc32)ccc1Cl)c1ccc2cc(C(F)(F)P(=O)(O)O)ccc2c1 (stereo not given)
30 | – | O=C(NS(=O)(=O)c1ccccc1)c1ccc2cc(C(F)(F)P(=O)(O)O)ccc2c1
41 | 17 | CS(=O)(=O)NC(=O)c1ccc2cc(C(F)(F)P(=O)(O)O)ccc2c1
46 | – | CCN1CCCC1CNC(=O)c1cc(S(=O)(=O)NC(=O)c2ccc3cc(C(F)(F)P(=O)(O)O)ccc3c2)ccc1OC (stereo not given)
20 | – | CC1Cc2ccccc2N1NC(=O)c1ccc(Cl)c(S(=O)(=O)NC(=O)c2ccc3cc(C(F)(F)P(=O)(O)O)ccc3c2)c1 (stereo not given)
0.35 | – | CCCCCCCCCCCCCCCCOc1ccc(S(=O)(=O)NC(=O)c2ccc3cc(C(F)(F)P(=O)(O)O)ccc3c2)cc1[N+](=O)[O-]
18 | – | CCCCCCCCCC(=O)Nc1ccc(S(=O)(=O)NC(=O)c2ccc3cc(C(F)(F)P(=O)(O)O)ccc3c2)cc1
